In PubChem BioAssay AID330 (DTP/NCI, 2004):
Values joined by “and” are separate entries in the source; they are usually repeats but may differ in a detail not shown here. Equal entries are not always repeated. Inconclusive results and toxic doses are left out.

System: P388 leukemia ip, CD2F1 mice, survival T/C
Assay: NCI In Vivo Anticancer Drug Screen. Data for tumor model P388 Leukemia (intraperitoneal) in CD2F1 (CDF1) mice
Details: endpoint: median survival time, higher = longer survival
Procedure, shortened: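 Mice carrying the transplanted tumor received test compound or vehicle. Survival was recorded in each group, and the value is the treated-group measurement divided by that of the vehicle-treated control group.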

[1] = dose: 50.0 mg/kg/injection, schedule: Q01DX005 (ip), vehicle: saline with Tween-80
[2] = dose: 100.0 mg/kg/injection, schedule: Q01DX005 (ip), vehicle: saline with Tween-80
[3] = dose: 200.0 mg/kg/injection, schedule: Q01DX005 (ip), vehicle: saline with Tween-80

O=c1cccc(Cl)[nH]1
T/C (dose: 100.0 mg/kg/injection, schedule: Q01DX009 (ip), vehicle: saline with Tween-80): 100 % of control
T/C (dose: 200.0 mg/kg/injection, schedule: Q01DX009 (ip), vehicle: saline with Tween-80): 95 % of control
T/C (dose: 400.0 mg/kg/injection, schedule: Q01DX009 (ip), vehicle: saline with Tween-80): 100 % of control

CC(C)(NC(=O)OCc1ccccc1)C(=O)n1cc(CC(C(=O)OCc2ccccc2)n2cnc3ccccc3c2=O)c2ccccc21 (stereo not drawn)
T/C (dose: 8.75 mg/kg/injection, schedule: Q01DX005 (ip), vehicle: Klucel (hydroxypropylcellulose) (HPC)): 96 % of control
T/C (dose: 17.5 mg/kg/injection, schedule: Q01DX005 (ip), vehicle: Klucel (hydroxypropylcellulose) (HPC)): 100 % of control
T/C (dose: 35.0 mg/kg/injection, schedule: Q01DX005 (ip), vehicle: Klucel (hydroxypropylcellulose) (HPC)): 99 % of control

O=c1c2ccccc2oc2nc3cc(Cl)ccc3n12
T/C [1]: 104 % of control
T/C [2]: 95 % of control
T/C [3]: 98 % of control

CC1=C(N(C)C)C(=O)N(c2ccccc2)CN1C
T/C (dose: 3.75 mg/kg/injection, schedule: Q01DX005 (ip), vehicle: saline with Tween-80): 111 % of control
T/C (dose: 7.5 mg/kg/injection, schedule: Q01DX005 (ip), vehicle: saline with Tween-80): 102 % of control
T/C (dose: 15.0 mg/kg/injection, schedule: Q01DX005 (ip), vehicle: saline with Tween-80): 101 % of control and 103 % of control

CC(C)(C)NCC(CN1CCOCC1)C(=O)c1ccccc1 (stereo not drawn)
T/C (dose: 6.25 mg/kg/injection, schedule: Q01DX005 (ip), vehicle: Klucel (hydroxypropylcellulose) (HPC)): 99 % of control
T/C (dose: 12.5 mg/kg/injection, schedule: Q01DX005 (ip), vehicle: Klucel (hydroxypropylcellulose) (HPC)): 96 % of control

NC(Cc1cnc[nH]1)C(=O)NO (stereo not drawn)
T/C (dose: 100.0 mg/kg/injection, schedule: Q01DX001 (ip), vehicle: saline): 94 % of control
T/C (dose: 200.0 mg/kg/injection, schedule: Q01DX001 (ip), vehicle: saline): 102 % of control
T/C (dose: 400.0 mg/kg/injection, schedule: Q01DX001 (ip), vehicle: saline): 94 % of control

Cc1cc(-c2cc(C)on2)no1
T/C (dose: 60.0 mg/kg/injection, schedule: Q01DX005 (ip), vehicle: saline): 103 % of control
T/C (dose: 120.0 mg/kg/injection, schedule: Q01DX005 (ip), vehicle: saline): 103 % of control
T/C (dose: 240.0 mg/kg/injection, schedule: Q01DX005 (ip), vehicle: saline): 103 % of control

COC(=O)CC1c2ccc3cc(OC)ccc3c2CCC1(C)C(=O)OC (stereo not drawn)
T/C [1]: 103 % of control
T/C [2]: 96 % of control
T/C [3]: 98 % of control

Brc1cccc(C(Nc2nncs2)Nc2nncs2)c1
T/C (dose: 50.0 mg/kg/injection, schedule: Q04DX002 (ip), vehicle: saline with Tween-80): 91 % of control
T/C (dose: 100.0 mg/kg/injection, schedule: Q04DX002 (ip), vehicle: saline with Tween-80): 92 % of control and 95 % of control
T/C (dose: 200.0 mg/kg/injection, schedule: Q04DX002 (ip), vehicle: saline with Tween-80): 100 % of control and 111 % of control
T/C (dose: 400.0 mg/kg/injection, schedule: Q04DX002 (ip), vehicle: saline with Tween-80): 124 % of control

CC(=O)OC(C(=O)O)C(OC(C)=O)C(OC(C)=O)C(=O)O (stereo not drawn)
T/C (dose: 50.0 mg/kg/injection, schedule: Q01DX009 (ip), vehicle: saline): 98 % of control
T/C (dose: 100.0 mg/kg/injection, schedule: Q01DX009 (ip), vehicle: saline): 101 % of control
T/C (dose: 200.0 mg/kg/injection, schedule: Q01DX009 (ip), vehicle: saline): 95 % of control

CC[C@@]1(O)C[C@H](OC2CC(N(C)C)C(O)C(C)O2)c2c(cc3c(c2O)C(=O)c2c(O)ccc(O)c2C3=O)[C@H]1C(=O)OC (stereo partly drawn)
T/C (dose: 1.56 mg/kg/injection, schedule: Q01DX009 (ip), vehicle: other): 110 % of control
T/C (dose: 3.13 mg/kg/injection, schedule: Q01DX009 (ip), vehicle: other): 123 % of control
T/C (dose: 6.25 mg/kg/injection, schedule: Q01DX009 (ip), vehicle: other): 118 % of control

Cc1ccc(C)c(C(=O)/C=C/C(=O)O)c1
T/C (dose: 25.0 mg/kg/injection, schedule: Q01DX005 (ip), vehicle: saline with Tween-80): 114 % of control
T/C [1]: 115 % of control and 117 % of control

O=S(=O)(O)C1=CC(=N/Br)/C=CC/1=N\Br
T/C (dose: 50.0 mg/kg/injection, schedule: Q01DX005 (ip), vehicle: saline): 118 % of control and 119 % of control
T/C (dose: 100.0 mg/kg/injection, schedule: Q01DX005 (ip), vehicle: saline): 115 % of control and 121 % of control
T/C (dose: 200.0 mg/kg/injection, schedule: Q01DX005 (ip), vehicle: saline): 118 % of control and 121 % of control

FC(F)(F)c1ccc(-c2nn[nH]n2)cc1
T/C (dose: 60.0 mg/kg/injection, schedule: Q01DX005 (ip), vehicle: Klucel (hydroxypropylcellulose) (HPC)): 107 % of control
T/C (dose: 120.0 mg/kg/injection, schedule: Q01DX005 (ip), vehicle: Klucel (hydroxypropylcellulose) (HPC)): 101 % of control

COc1cc2cccc(OC)c(=O)c2c(OC)c1OC
T/C (dose: 50.0 mg/kg/injection, schedule: Q01DX005 (ip), vehicle: Klucel (hydroxypropylcellulose) (HPC)): 92 % of control
T/C (dose: 100.0 mg/kg/injection, schedule: Q01DX005 (ip), vehicle: Klucel (hydroxypropylcellulose) (HPC)): 100 % of control
T/C (dose: 200.0 mg/kg/injection, schedule: Q01DX005 (ip), vehicle: Klucel (hydroxypropylcellulose) (HPC)): 90 % of control
